Test results: patent US20230248832A1, “Small Molecule Ligand-Drug Conjugates for Targeted Cancer Therapy” (Emory University, priority 2008, published 2023)
Entries after “also recorded” stand apart in the source; their conditions may differ. Where two headings read alike, the source gives them in different places.

Columns and labels:
cancer [1] = test: In vitro cancer targeting of IR783 derivatives; assay type: cell-based
cancer [2] = test: In vivo cancer targeting of IR783 derivatives
[3] = system: C4-2 human prostate cancer cells implanted subcutaneously; test: Subcutaneous C4-2 prostate tumor model; assay type: in vivo, athymic nude mice; settings: for incidence of tumor formation: SQ C4-2, i.p., IR783 and IR-MUT1 5 mg/kg daily, taxotere 15 mg/kg twice per week; for apoptosis in SQ C4-2 tumors (histopathology, H/E stain): SQ C4-2 tumors in mice
Experimental: 1 million C4-2 human prostate cancer cells were implanted subcutaneously into the back of the 4 to 6 week old athymic nude mice. […] Tumor diameters were measured with a caliper, and tumor volume in mm^3 is calculated by the formula: Volume=(width)^2×length/2.
Serum PSA levels were used to monitor tumor growth in a C4-2 SQ tumor model. Mice were checked for serum PSA levels before implantation and at 35 and 45 days after tumor cell implantation.
(§1) C4-2 prostate cancer cells were subcutaneously implanted into the back of the 4 to 6 week old athymic nude mice. […] The serum prostate specific antigen (PSA) levels, which indicating the presence of prostate cancers, were monitored during the tumor reduction study.

[4] = system: C4-2 human prostate cancer cells implanted intraosseously into the tibia; test: Intratibial C4-2 prostate tumor model; assay type: in vivo, athymic nude mice; settings: for tumors growing from tibia (incidence): i.p. from 30 days after implantation
Experimental: 1 million C4-2 human prostate cancer cells were implanted intraosseously into the tibia of the 4 to 6 week old athymic nude mice. […] The animals were observed daily and body weights were measured daily. Tumor diameters are measured with calipers, and tumor volume in mm^3 is calculated by the formula: Volume=(width)^2×length×0.5236.
In another tumor model, C4-2 cancer cells were administered intraosseously into the tibia of the 4 to 6 week old athymic nude mice.

cancer cells = test: Toxicity to cancer cells at day 2 (FIG. 6); assay type: cell-based; settings: evaluated at day 2; compared with free nonconjugated drug taxotere
Excerpt: IR-783 (dye molecule only) is nontoxic. […] This is expected since IR783 conjugated to docetaxel or paclitaxel, accumulation in cells require enzymatic activation, which releases the active taxotere or taxol component inside of the cells to exert cytotoxicity against the growth of cancer cells.

[5] = Body weight during treatment of C4-2 tumor-bearing mice; assay type: in vivo, athymic nude mice; settings: i.p.
Excerpt: During treatment, the body weights were obtained daily.
as §1

[6] = system: C4-2 human prostate cancer cells; test: MTT cytotoxicity assay, C4-2; assay type: cell-based; settings: C4-2 cells, 48 hrs
Experimental: (§2) C4-2 (FIG. 13A) and P69 (FIG. 13B) cells were plated in 96 well plates (3,000/well). […] (FIG. 13C) SN12C and (FIG. 13D) HEK293 cells were plated in 96 well plates (3,000/well).

[7] = system: P69 normal human prostate epithelial cells; test: MTT cytotoxicity assay, P69; assay type: cell-based; settings: Epithelial cell, 48 hours
Experimental: as §2

[8] = system: SN12C human renal cancer cells; test: MTT cytotoxicity assay, SN12C; assay type: cell-based; settings: 48 hrs
Experimental: as §2

[9] = system: HEK293 human embryonic kidney cells; test: MTT cytotoxicity assay, HEK293; assay type: cell-based; settings: 48 hrs
Experimental: as §2

Compound | In vitro targeting (cancer [1]) | In vivo targeting (cancer [2]) | other results
CCn1/c(=C/C=C/C2=[N+](CC)c3cccc4cccc2c34)c2cccc3cccc1c32 | good | poor | 
CC1(C)C(/C=C/C2=C(Cl)C(=C/C=C3/N(CCCCC(=O)O)c4ccccc4C3(C)C)/CCC2)=[N+](CCCCC(=O)[O-])c2ccccc21 | excellent | excellent | 
COc1ccc2c(c1)C(C)(C)C(/C=C/C=C/C=C1/N(C)c3ccc(OC)cc3C1(C)C)=[N+]2C.[I-] | excellent |  | 
CN1/C(=C/C=C(Cl)/C=C/C2=[N+](C)c3ccc4ccccc4c3C2(C)C)C(C)(C)c2c1ccc1ccccc21 | excellent |  | 
CN1/C(=C/C=C(Cl)/C=C/C2=[N+](C)c3ccccc3C2(C)C)C(C)(C)c2ccccc21.[I-] | excellent |  | 
CC1(C)C(/C=C/C2=C(Cl)C(=C/C=C3/N(CCCCCC(=O)O)c4ccccc4C3(C)C)/CCC2)=[N+](CCCCCC(=O)O)c2ccccc21.[Na+].[Na+] | excellent | excellent | 
CC1(C)C(/C=C/C2=C(Cl)C(=C/C=C3/N(CCCCO)c4ccccc4C3(C)C)/CCC2)=[N+](CCCCO)c2ccccc21 | poor | poor | 
CC1(C)C(/C=C/C2=C(Cl)C(=C/C=C3/N(CCCc4ccccc4)c4ccccc4C3(C)C)/CCC2)=[N+](CCCc2ccccc2)c2ccccc21 | excellent | poor | 
CC1(C)C(/C=C/C2=C(Cl)C(=C/C=C3/N(CCO)c4ccccc4C3(C)C)/CCC2)=[N+](CCO)c2ccccc21 | excellent | low intensity | 
CN1/C(=C/C=C2\CCCC(/C=C/C3=[N+](C)c4ccc5ccccc5c4C3(C)C)=C2Cl)C(C)(C)C2=c3ccccc3=CCC21.[I-] (stereo not shown) |  | poor | 
I.O=C1C(/C=c2\c3cccc4cccc(c43)n2CCCc2ccccc2)=C([O-])C/1=C/C1=[N+](CCCc2ccccc2)c2cccc3cccc1c23 |  | poor | 
O=C(O)CCCCCn1/c(=C/C=C2\CCCC(/C=C/C3=[N+](CCCCCC(=O)O)c4cccc5cccc3c45)=C2Cl)c2cccc3cccc1c32.[Na+].[Na+] | poor | poor | 
CC1(C)C(=CC=C2CCCC(C=CC3=[N+](CCCCS(=O)(=O)[O-])c4ccccc4C3(C)C)=C2Cl)N(CCCCS(=O)(=O)[O-])c2ccccc21.[Na+] [IR-783, reference compound] |  |  | incidence of tumor formation [3]: 9/20; apoptosis in SQ C4-2 tumors (histopathology, H/E stain) [3]: negligible; apoptosis in SQ C4-2 tumors (histopathology, H/E stain) ([3]; listed as IR783): not affected; bone lesions on X-ray [4]: both the osteolytic and osteoblastic lesions were apparently observed; average volume of tumor ([4]; IR-783 group versus IR-MUT1 group): significantly higher; tumors growing from tibia (incidence) [4]: 4/5; bone lesions on X-ray ([4]; listed as IR783): severe osteolytic lesions; toxicity to cancer cells (cancer cells): nontoxic; effect on body weight [5]: no body weight loss
CC(=O)O[C@@]12CO[C@@H]1C[C@H](O)[C@@]1(C)C(=O)[C@H](O)C3=C(C)[C@@H](OC(=O)[C@H](O)[C@@H](NC(=O)OC(C)(C)C)c4ccccc4)C[C@@](O)([C@@H](OC(=O)c4ccccc4)[C@H]21)C3(C)C [taxotere, docetaxel, reference compound] |  |  | IC50 [6]: 10 nM; IC50 [7]: ~10 nM; IC50 [8]: 12 nM; IC50 [9]: ~600 nM; serum PSA levels ([3]; 35 and 45 days after tumor cell implantation, compared with IR-783 (control) group): greatly depressed; also recorded: dramatically lower; also recorded: significantly lower; incidence of tumor formation [3]: no tumor growing; also recorded: no tumor formed; bone lesions on X-ray [4]: no lesion; tumors growing from tibia (incidence) [4]: 0/5; effect on body weight [5]: noticeably lower
